From ChEMBL document CHEMBL3091374, “New synthetic enediynes and their conjugates may provide effective treatment for cancer” (ACS Med Chem Lett, 2013)

Key:
[1] = test system: NCI-H226; assay: Antiproliferative activity against human NCI-H226 cells assessed as ATP level after 72 hrs by CellTiter-Glo assay; format: functional, cell-based; conditions: NCI-H226, 72 h
[2] = Antiproliferative activity against human 786-O cells assessed as ATP level after 72 hrs by CellTiter-Glo assay; format: functional, cell-based; conditions: 786-0, 72 h

SMILES | EC50 [1] | EC50 [2]
C[C@@H](O)[C@@]12O[C@]13c1cc(O)c4c(c1N[C@H]2C#C/C=C\C#C[C@H]3O)C(=O)c1ccc(NCCN)cc1C4=O | 0.986 nM | 1.27 nM
C[C@@H](O)[C@@]12O[C@]13c1cc(O)c4c(c1N[C@H]2C#C/C=C\C#C[C@H]3O)C(=O)c1ccc(NC(=O)c2ccc(N)cc2)cc1C4=O | 0.873 nM | 0.058 nM
